According to PubChem BioAssay AID2060622 (Molecular Pharmacology Branch, DTP, NCI, 2025):
pIC50: −log10 of the molar value.

System: 242566-281-R-J2-PDC complex spheroid viability
Assay: Anticancer human tumor 242566-281-R-J2-PDC patient-derived pancreatic carcinoma cell line growth inhibition [CLK]
Settings: for pIC50: curve of first compound; for viability, T/C: stronger effect = lower value
Procedure, shortened: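 Multi-cell-type spheroids combined patient-derived tumor cells with HUVEC endothelial cells and human mesenchymal stem cells. Paired agents were dosed in half-log steps down from about clinical Cmax, or from 10 microM where Cmax was unknown.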

[1] = second compound 0.0316 µM, first compound 0.0316 µM
[2] = second compound 0.0316 µM, first compound 0.1 µM
[3] = second compound 0.0316 µM, first compound 0.316 µM
[4] = second compound 0.0316 µM, first compound 1 µM
[5] = second compound 0.0316 µM, first compound 3.16 µM
[6] = second compound 0.0316 µM, first compound 10 µM
[7] = second compound 0.1 µM, first compound 0.0316 µM
[8] = second compound 0.1 µM, first compound 0.1 µM
[9] = second compound 0.1 µM, first compound 0.316 µM
[10] = second compound 0.1 µM, first compound 1 µM
[11] = second compound 0.1 µM, first compound 3.16 µM
[12] = second compound 0.1 µM, first compound 10 µM
[13] = second compound 0.316 µM, first compound 0.0316 µM
[14] = second compound 0.316 µM, first compound 0.1 µM
[15] = second compound 0.316 µM, first compound 0.316 µM
[16] = second compound 0.316 µM, first compound 1 µM
[17] = second compound 0.316 µM, first compound 3.16 µM
[18] = second compound 0.316 µM, first compound 10 µM
[19] = second compound 1 µM, first compound 0.0316 µM
[20] = second compound 1 µM, first compound 0.1 µM
[21] = second compound 1 µM, first compound 0.316 µM
[22] = second compound 1 µM, first compound 1 µM
[23] = second compound 1 µM, first compound 3.16 µM
[24] = second compound 1 µM, first compound 10 µM
[25] = second compound 3.16 µM, first compound 0.0316 µM
[26] = second compound 3.16 µM, first compound 0.1 µM
[27] = second compound 3.16 µM, first compound 0.316 µM
[28] = second compound 3.16 µM, first compound 1 µM
[29] = second compound 3.16 µM, first compound 3.16 µM
[30] = second compound 3.16 µM, first compound 10 µM
[31] = second compound 10 µM, first compound 0.0316 µM
[32] = second compound 10 µM, first compound 0.1 µM
[33] = second compound 10 µM, first compound 0.316 µM
[34] = second compound 10 µM, first compound 1 µM
[35] = second compound 10 µM, first compound 3.16 µM
[36] = second compound 10 µM, first compound 10 µM
[37] = second compound 0.0316 µM, first compound 0.00316 µM
[38] = second compound 0.0316 µM, first compound 0.01 µM
[39] = second compound 0.1 µM, first compound 0.00316 µM
[40] = second compound 0.1 µM, first compound 0.01 µM
[41] = second compound 0.316 µM, first compound 0.00316 µM
[42] = second compound 0.316 µM, first compound 0.01 µM
[43] = second compound 1 µM, first compound 0.00316 µM
[44] = second compound 1 µM, first compound 0.01 µM
[45] = second compound 3.16 µM, first compound 0.00316 µM
[46] = second compound 3.16 µM, first compound 0.01 µM
[47] = second compound 10 µM, first compound 0.00316 µM
[48] = second compound 10 µM, first compound 0.01 µM
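Note: spheroids exposed to compounds for 7 days before readout.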
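Throughout, for viability, T/C: 100% = DMSO vehicle control wells.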

CC(=O)O[C@H]1C(=O)[C@@]2(C)[C@H]([C@H](OC(=O)c3ccccc3)[C@]3(O)C[C@H](OC(=O)[C@H](O)[C@@H](NC(=O)c4ccccc4)c4ccccc4)C(C)=C1C3(C)C)[C@]1(OC(C)=O)CO[C@@H]1C[C@@H]2O + CN1CCN(c2cc(C(=O)Nc3cc4cc(-c5cnn(C)c5)ccc4cn3)ccn2)CC1
pIC50 (second compound 0.0316 µM): > 7.50
pIC50 (second compound 0.1 µM): > 7.50
pIC50 (second compound 0.316 µM): > 7.50
pIC50 (second compound 1 µM): > 7.50
pIC50 (second compound 3.16 µM): > 7.50
pIC50 (second compound 10 µM): > 7.50
viability, T/C [1]: 37%
viability, T/C [2]: 33.4%
viability, T/C [3]: 28.9%
viability, T/C [4]: 26.7%
viability, T/C [5]: 32.2%
viability, T/C [6]: 34.8%
viability, T/C [7]: 43.7%
viability, T/C [8]: 29.1%
viability, T/C [9]: 27.7%
viability, T/C [10]: 25.2%
viability, T/C [11]: 29.1%
viability, T/C [12]: 28.6%
viability, T/C [13]: 15.9%
viability, T/C [14]: 15.5%
viability, T/C [15]: 15.1%
viability, T/C [16]: 17.2%
viability, T/C [17]: 25%
viability, T/C [18]: 31.3%
viability, T/C [19]: 5.85%
viability, T/C [20]: 4.53%
viability, T/C [21]: 5.01%
viability, T/C [22]: 4.32%
viability, T/C [23]: 5.32%
viability, T/C [24]: 5.54%
viability, T/C [25]: 7.09%
viability, T/C [26]: 7.07%
viability, T/C [27]: 7.24%
viability, T/C [28]: 7.25%
viability, T/C [29]: 7.67%
viability, T/C [30]: 7.22%
viability, T/C [31]: 1.45%
viability, T/C [32]: 1.31%
viability, T/C [33]: 1%
viability, T/C [34]: 1.28%
viability, T/C [35]: 1.57%
viability, T/C [36]: 1.05%

CCc1c2c(nc3ccc(O)cc13)-c1cc3c(c(=O)n1C2)COC(=O)[C@]3(O)CC + CN1CCN(c2cc(C(=O)Nc3cc4cc(-c5cnn(C)c5)ccc4cn3)ccn2)CC1
pIC50 (second compound 0.0316 µM): 8.05
pIC50 (second compound 0.1 µM): 8.39
pIC50 (second compound 0.316 µM): > 8.50
pIC50 (second compound 1 µM): > 8.50
pIC50 (second compound 3.16 µM): > 8.50
pIC50 (second compound 10 µM): > 8.50
viability, T/C [37]: 75.4%
viability, T/C [38]: 47.6%
viability, T/C [1]: 17.3%
viability, T/C [2]: 8.08%
viability, T/C [3]: 4.41%
viability, T/C [4]: 2.2%
viability, T/C [39]: 57%
viability, T/C [40]: 26.9%
viability, T/C [7]: 9.57%
viability, T/C [8]: 5.51%
viability, T/C [9]: 3.73%
viability, T/C [10]: 1.87%
viability, T/C [41]: 13.3%
viability, T/C [42]: 7.58%
viability, T/C [13]: 4.52%
viability, T/C [14]: 2.86%
viability, T/C [15]: 1.79%
viability, T/C [16]: 1.15%
viability, T/C [43]: 3.62%
viability, T/C [44]: 3.2%
viability, T/C [19]: 2.53%
viability, T/C [20]: 2.3%
viability, T/C [21]: 1.39%
viability, T/C [22]: 1.39%
viability, T/C [45]: 5.73%
viability, T/C [46]: 5.04%
viability, T/C [25]: 3.5%
viability, T/C [26]: 3.24%
viability, T/C [27]: 2.82%
viability, T/C [28]: 1.82%
viability, T/C [47]: 1.17%
viability, T/C [48]: 0.88%
viability, T/C [31]: 0.45%
viability, T/C [32]: 0.5%
viability, T/C [33]: 0.49%
viability, T/C [34]: 0.31%

Cn1ncnc1[C@H]1c2n[nH]c(=O)c3cc(F)cc(c23)N[C@@H]1c1ccc(F)cc1 + CN1CCN(c2cc(C(=O)Nc3cc4cc(-c5cnn(C)c5)ccc4cn3)ccn2)CC1
pIC50 (second compound 0.0316 µM): < 7.00
pIC50 (second compound 0.1 µM): < 7.00
pIC50 (second compound 0.316 µM): > 9.50
pIC50 (second compound 1 µM): > 9.50
pIC50 (second compound 3.16 µM): > 9.50
pIC50 (second compound 10 µM): > 9.50
viability, T/C (second compound 0.0316 µM, first compound 0.000316 µM): 106%
viability, T/C (second compound 0.0316 µM, first compound 0.001 µM): 96.4%
viability, T/C [37]: 99.5%
viability, T/C [38]: 107%
viability, T/C [1]: 97.9%
viability, T/C [2]: 88%
viability, T/C (second compound 0.1 µM, first compound 0.000316 µM): 87.7%
viability, T/C (second compound 0.1 µM, first compound 0.001 µM): 87.9%
viability, T/C [39]: 89.1%
viability, T/C [40]: 86.6%
viability, T/C [7]: 84.8%
viability, T/C [8]: 62.9%
viability, T/C (second compound 0.316 µM, first compound 0.000316 µM): 34%
viability, T/C (second compound 0.316 µM, first compound 0.001 µM): 35%
viability, T/C [41]: 32.3%
viability, T/C [42]: 30.9%
viability, T/C [13]: 31.3%
viability, T/C [14]: 26.8%
viability, T/C (second compound 1 µM, first compound 0.000316 µM): 4.47%
viability, T/C (second compound 1 µM, first compound 0.001 µM): 4.64%
viability, T/C [43]: 4.59%
viability, T/C [44]: 4.07%
viability, T/C [19]: 3.7%
viability, T/C [20]: 3.76%
viability, T/C (second compound 3.16 µM, first compound 0.000316 µM): 6.68%
viability, T/C (second compound 3.16 µM, first compound 0.001 µM): 7.67%
viability, T/C [45]: 6.68%
viability, T/C [46]: 5.7%
viability, T/C [25]: 5.67%
viability, T/C [26]: 5.8%
viability, T/C (second compound 10 µM, first compound 0.000316 µM): 0.94%
viability, T/C (second compound 10 µM, first compound 0.001 µM): 1.5%
viability, T/C [47]: 1.24%
viability, T/C [48]: 1.06%
viability, T/C [31]: 2.08%
viability, T/C [32]: 1.4%

Nc1ccn(C2OC(CO)C(O)C2(F)F)c(=O)n1 (stereo not given) + CN1CCN(c2cc(C(=O)Nc3cc4cc(-c5cnn(C)c5)ccc4cn3)ccn2)CC1
pIC50 (second compound 0.0316 µM): > 7.50
pIC50 (second compound 0.1 µM): > 7.50
pIC50 (second compound 0.316 µM): > 7.50
pIC50 (second compound 1 µM): > 7.50
pIC50 (second compound 3.16 µM): > 7.50
pIC50 (second compound 10 µM): > 7.50
viability, T/C [1]: 46.6%
viability, T/C [2]: 20.6%
viability, T/C [3]: 10.6%
viability, T/C [4]: 13.3%
viability, T/C [5]: 8.86%
viability, T/C [6]: 6.79%
viability, T/C [7]: 48.6%
viability, T/C [8]: 15.4%
viability, T/C [9]: 10.2%
viability, T/C [10]: 6.87%
viability, T/C [11]: 6.64%
viability, T/C [12]: 5.01%
viability, T/C [13]: 23.9%
viability, T/C [14]: 15.3%
viability, T/C [15]: 10.9%
viability, T/C [16]: 4.57%
viability, T/C [17]: 4.57%
viability, T/C [18]: 3.01%
viability, T/C [19]: 4.38%
viability, T/C [20]: 4.08%
viability, T/C [21]: 3.98%
viability, T/C [22]: 4.09%
viability, T/C [23]: 4.15%
viability, T/C [24]: 3.45%
viability, T/C [25]: 7.21%
viability, T/C [26]: 6.5%
viability, T/C [27]: 5.9%
viability, T/C [28]: 5.48%
viability, T/C [29]: 5.49%
viability, T/C [30]: 5.8%
viability, T/C [31]: 1.62%
viability, T/C [32]: 1.77%
viability, T/C [33]: 1.12%
viability, T/C [34]: 1.8%
viability, T/C [35]: 1.55%
viability, T/C [36]: 1.05%

O=c1[nH]cc(F)c(=O)[nH]1 + CN1CCN(c2cc(C(=O)Nc3cc4cc(-c5cnn(C)c5)ccc4cn3)ccn2)CC1
pIC50 (second compound 0.0316 µM): < 5.00
pIC50 (second compound 0.1 µM): 5.22
pIC50 (second compound 0.316 µM): > 7.50
pIC50 (second compound 1 µM): > 7.50
pIC50 (second compound 3.16 µM): > 7.50
pIC50 (second compound 10 µM): > 7.50
viability, T/C [1]: 109%
viability, T/C [2]: 101%
viability, T/C [3]: 103%
viability, T/C [4]: 77%
viability, T/C [5]: 61.4%
viability, T/C [6]: 56.1%
viability, T/C [7]: 97.8%
viability, T/C [8]: 81.2%
viability, T/C [9]: 81.7%
viability, T/C [10]: 69.8%
viability, T/C [11]: 54.8%
viability, T/C [12]: 44.9%
viability, T/C [13]: 38.5%
viability, T/C [14]: 35.3%
viability, T/C [15]: 30.8%
viability, T/C [16]: 25.4%
viability, T/C [17]: 24.9%
viability, T/C [18]: 18.9%
viability, T/C [19]: 4.56%
viability, T/C [20]: 4.75%
viability, T/C [21]: 3.93%
viability, T/C [22]: 4.22%
viability, T/C [23]: 3.79%
viability, T/C [24]: 3.85%
viability, T/C [25]: 7.11%
viability, T/C [26]: 6.79%
viability, T/C [27]: 6.18%
viability, T/C [28]: 6.26%
viability, T/C [29]: 5.72%
viability, T/C [30]: 5.29%
viability, T/C [31]: 1.55%
viability, T/C [32]: 1.68%
viability, T/C [33]: 1.19%
viability, T/C [34]: 1.49%
viability, T/C [35]: 1.43%
viability, T/C [36]: 1.2%
